Results: the OligoGym collection
HELM strings list units from the 5' end as sugar, base in round brackets, then linkage (d deoxyribose, r ribose, m 2'-O-methyl, p phosphodiester). Strings are as the collection lists them; they lack the last nucleoside at the 3' end of the tested compound. [moe] = 2'-O-(2-methoxyethyl) (MOE); [sp] = phosphorothioate linkage; [m5C] = 5-methylcytosine

biological target: PRNP; assay: mouse, dose not given; conditions: ASO

Substance	3 h FOB score [score 0-7]
RNA1{[moe](G)[sp].[moe](T)p.[moe]([m5C])p.[moe](A)p.[moe](A)[sp].d(A)[sp].d(A)[sp].d(T)[sp].d([m5C])[sp].d(A)[sp].d(T)[sp].d(T)[sp].d([m5C])[sp].d(T)[sp].d(G)[sp].[moe](G)p.[moe](T)p.[moe](T)[sp].[moe](T)}$$$$ (last 3' nucleoside missing)	1
RNA1{[moe](G)[sp].[moe](T)p.[moe]([m5C])p.[moe](A)p.[moe](G)[sp].d(T)[sp].d(T)[sp].d(T)[sp].d(T)[sp].d(T)[sp].d([m5C])[sp].d([m5C])[sp].d([m5C])[sp].[moe]([m5C])p.[moe](A)p.[moe]([m5C])[sp].[moe](A)}$$$$ (last 3' nucleoside missing)	0
RNA1{[moe](G)[sp].[moe](T)p.[moe]([m5C])p.[moe](A)p.[moe](G)[sp].d(T)[sp].d(T)[sp].d(T)[sp].d(T)[sp].d(T)[sp].d([m5C])[sp].d([m5C])[sp].d([m5C])[sp].d([m5C])[sp].d(A)[sp].[moe]([m5C])p.[moe](A)p.[moe](T)[sp].[moe](A)}$$$$ (last 3' nucleoside missing)	1
RNA1{[moe](G)[sp].[moe](T)p.[moe]([m5C])p.[moe](A)p.[moe](G)p.[moe](T)p.d(T)[sp].d(T)[sp].d(T)[sp].d(T)[sp].d([m5C])[sp].d([m5C])[sp].d([m5C])[sp].d([m5C])[sp].d(A)[sp].d([m5C])[sp].[moe](A)p.[moe](T)[sp].[moe](A)}$$$$ (last 3' nucleoside missing)	0
RNA1{[moe](G)[sp].[moe](T)p.[moe]([m5C])p.[moe](A)p.[moe](G)p.d(T)[sp].d(T)[sp].d(T)[sp].d(T)[sp].d(T)[sp].d([m5C])[sp].d([m5C])[sp].d([m5C])[sp].d([m5C])[sp].[moe](A)[sp].[moe]([m5C])p.[moe](A)p.[moe](T)}$$$$ (last 3' nucleoside missing)	0
RNA1{[moe](G)[sp].[moe](T)p.[moe]([m5C])p.[moe](A)p.[moe](G)p.d(T)[sp].d(T)[sp].d(T)[sp].d(T)[sp].d(T)[sp].d([m5C])[sp].d([m5C])[sp].d([m5C])[sp].d([m5C])[sp].[moe](A)p.[moe]([m5C])p.[moe](A)[sp].[moe](T)}$$$$ (last 3' nucleoside missing)	0
RNA1{[moe](G)[sp].[moe](T)p.[moe]([m5C])p.[moe](A)p.[moe](T)[sp].d(A)[sp].d(A)[sp].d(T)[sp].d(T)[sp].d(T)[sp].d(T)[sp].d([m5C])[sp].d(T)[sp].d(T)[sp].d(A)[sp].[moe](G)p.[moe]([m5C])p.[moe](T)[sp].[moe](A)}$$$$ (last 3' nucleoside missing)	0
RNA1{[moe](G)[sp].[moe](T)p.[moe]([m5C])p.[moe](A)p.[moe](T)p.[moe](A)p.d(A)[sp].d(T)[sp].d(T)[sp].d(T)[sp].d(T)[sp].d([m5C])[sp].d(T)[sp].d(T)[sp].d(A)[sp].d(G)[sp].[moe]([m5C])p.[moe](T)[sp].[moe](A)}$$$$ (last 3' nucleoside missing)	2.5
RNA1{[moe](G)[sp].[moe](T)p.[moe]([m5C])p.[moe](A)p.[moe](T)p.d(A)[sp].d(A)[sp].d(T)[sp].d(T)[sp].d(T)[sp].d(T)[sp].d([m5C])[sp].d(T)[sp].d(T)[sp].[moe](A)[sp].[moe](G)p.[moe]([m5C])p.[moe](T)}$$$$ (last 3' nucleoside missing)	0
RNA1{[moe](G)[sp].[moe](T)p.[moe]([m5C])p.[moe](A)p.d(G)[sp].d(T)[sp].d(T)[sp].d(T)[sp].d(T)[sp].d(T)[sp].d([m5C])[sp].d([m5C])[sp].d([m5C])[sp].d([m5C])[sp].[moe](A)p.[moe]([m5C])p.[moe](A)p.[moe](T)[sp].[moe](A)}$$$$ (last 3' nucleoside missing)	0
RNA1{[moe](G)[sp].[moe](T)p.[moe]([m5C])p.[moe](A)p.d(T)[sp].d(A)[sp].d(A)[sp].d(T)[sp].d(T)[sp].d(T)[sp].d(T)[sp].d([m5C])[sp].d(T)[sp].d(T)[sp].[moe](A)p.[moe](G)p.[moe]([m5C])p.[moe](T)[sp].[moe](A)}$$$$ (last 3' nucleoside missing)	0.25
RNA1{[moe](G)[sp].[moe](T)p.[moe]([m5C])p.[moe]([m5C])p.[moe](A)[sp].d(A)[sp].d(A)[sp].d(A)[sp].d(A)[sp].d(T)[sp].d(A)[sp].d(A)[sp].d(G)[sp].d(T)[sp].d([m5C])[sp].[moe]([m5C])p.[moe](A)p.[moe](G)[sp].[moe](A)}$$$$ (last 3' nucleoside missing)	1
RNA1{[moe](G)[sp].[moe](T)p.[moe]([m5C])p.[moe]([m5C])p.[moe](A)[sp].d(T)[sp].d(T)[sp].d(T)[sp].d(T)[sp].d([m5C])[sp].d(T)[sp].d(G)[sp].d(T)[sp].d(G)[sp].d([m5C])[sp].[moe](T)p.[moe](T)p.[moe](T)[sp].[moe](T)}$$$$ (last 3' nucleoside missing)	4.5
RNA1{[moe](G)[sp].[moe](T)p.[moe]([m5C])p.d(A)[sp].d(G)[sp].d(T)[sp].d(T)[sp].d(T)[sp].d(T)[sp].d(T)[sp].d([m5C])[sp].d([m5C])[sp].d([m5C])[sp].[moe]([m5C])p.[moe](A)p.[moe]([m5C])p.[moe](A)p.[moe](T)[sp].[moe](A)}$$$$ (last 3' nucleoside missing)	0
RNA1{[moe](G)[sp].[moe]([m5C])[sp].[moe]([m5C])[sp].[moe](A)[sp].[moe]([m5C])[sp].d(A)[sp].d(T)[sp].d(A)[sp].d(T)[sp].d(A)[sp].d(G)[sp].d(G)[sp].d(G)[sp].d(T)[sp].d([m5C])[sp].[moe]([m5C])[sp].[moe](T)[sp].[moe](T)[sp].[moe](T)}$$$$ (last 3' nucleoside missing)	4.25
RNA1{[moe](G)[sp].[moe]([m5C])p.[moe](A)p.[moe](A)p.[moe](G)[sp].d([m5C])[sp].d(A)[sp].d(G)[sp].d(T)[sp].d(T)[sp].d([m5C])[sp].d(T)[sp].d(T)[sp].d(T)[sp].d(T)[sp].[moe]([m5C])p.[moe](T)p.[moe](T)[sp].[moe](T)}$$$$ (last 3' nucleoside missing)	6
RNA1{[moe](G)[sp].[moe]([m5C])p.[moe](A)p.[moe](A)p.[moe]([m5C])[sp].d(G)[sp].d(G)[sp].d([m5C])[sp].d(T)[sp].d([m5C])[sp].d(A)[sp].d(T)[sp].d(G)[sp].d(A)[sp].d(T)[sp].[moe](G)p.[moe](A)p.[moe](A)[sp].[moe]([m5C])}$$$$ (last 3' nucleoside missing)	3.5
RNA1{[moe](G)[sp].[moe]([m5C])p.[moe](A)p.[moe](G)p.[moe](A)[sp].d(A)[sp].d(A)[sp].d(G)[sp].d(T)[sp].d(A)[sp].d(G)[sp].d([m5C])[sp].d(T)[sp].d(A)[sp].d(T)[sp].[moe]([m5C])p.[moe](A)p.[moe](T)[sp].[moe](T)}$$$$ (last 3' nucleoside missing)	4.25
RNA1{[moe](G)[sp].[moe]([m5C])p.[moe](A)p.[moe]([m5C])p.[moe](A)[sp].d([m5C])[sp].d(T)[sp].d(G)[sp].d(A)[sp].d([m5C])[sp].d([m5C])[sp].d(A)[sp].d(T)[sp].d(T)[sp].d(T)[sp].[moe](T)p.[moe](T)p.[moe](T)[sp].[moe](A)}$$$$ (last 3' nucleoside missing)	0
RNA1{[moe](G)[sp].[moe]([m5C])p.[moe](A)p.[moe]([m5C])p.[moe](A)p.[moe]([m5C])p.d(T)[sp].d(G)[sp].d(A)[sp].d([m5C])[sp].d([m5C])[sp].d(A)[sp].d(T)[sp].d(T)[sp].d(T)[sp].d(T)[sp].[moe](T)p.[moe](T)[sp].[moe](A)}$$$$ (last 3' nucleoside missing)	0
RNA1{[moe](G)[sp].[moe]([m5C])p.[moe](A)p.[moe]([m5C])p.[moe](A)p.d([m5C])[sp].d(T)[sp].d(G)[sp].d(A)[sp].d([m5C])[sp].d([m5C])[sp].d(A)[sp].d(T)[sp].d(T)[sp].[moe](T)[sp].[moe](T)p.[moe](T)p.[moe](T)}$$$$ (last 3' nucleoside missing)	0
RNA1{[moe](G)[sp].[moe]([m5C])p.[moe](A)p.[moe]([m5C])p.d(A)[sp].d([m5C])[sp].d(T)[sp].d(G)[sp].d(A)[sp].d([m5C])[sp].d([m5C])[sp].d(A)[sp].d(T)[sp].d(T)[sp].[moe](T)p.[moe](T)p.[moe](T)p.[moe](T)[sp].[moe](A)}$$$$ (last 3' nucleoside missing)	2.25
RNA1{[moe](G)[sp].[moe]([m5C])p.[moe](T)p.[moe](A)p.[moe](G)[sp].d(G)[sp].d(T)[sp].d(G)[sp].d(A)[sp].d([m5C])[sp].d(A)[sp].d(A)[sp].d(T)[sp].d(A)[sp].d(T)[sp].[moe]([m5C])p.[moe](A)p.[moe](A)[sp].[moe](A)}$$$$ (last 3' nucleoside missing)	0
RNA1{[moe](G)[sp].[moe]([m5C])p.[moe](T)p.[moe](A)p.[moe](T)[sp].d(G)[sp].d(A)[sp].d(A)[sp].d(A)[sp].d(T)[sp].d([m5C])[sp].d(T)[sp].d([m5C])[sp].d(T)[sp].d(A)[sp].[moe]([m5C])p.[moe](T)p.[moe](A)[sp].[moe](A)}$$$$ (last 3' nucleoside missing)	2.5
RNA1{[moe](G)[sp].[moe]([m5C])p.[moe](T)p.[moe](A)p.[moe](T)[sp].d([m5C])[sp].d(T)[sp].d(T)[sp].d(T)[sp].d([m5C])[sp].d(T)[sp].d(A)[sp].d(T)[sp].d(T)[sp].d(T)[sp].[moe](G)p.[moe](T)p.[moe](G)[sp].[moe](T)}$$$$ (last 3' nucleoside missing)	1
RNA1{[moe](G)[sp].[moe]([m5C])p.[moe](T)p.[moe](T)p.[moe](A)[sp].d(A)[sp].d(T)[sp].d(T)[sp].d(A)[sp].d(G)[sp].d(T)[sp].d(T)[sp].d(A)[sp].d([m5C])[sp].d(A)[sp].[moe](T)p.[moe]([m5C])p.[moe](G)[sp].[moe](G)}$$$$ (last 3' nucleoside missing)	4.5
